Assay results: article PMC6934184, “Selective DNA-PKcs inhibition extends the therapeutic index of localized radiotherapy and chemotherapy” (The Journal of Clinical Investigation, 2019)

Target: T1, CSF1R (FMS) (Homo sapiens, UniProt P07333)
T1 construct: purchased Thermo Fisher Scientific (Life Technologies) SelectScreen
Assay: SelectScreen Z'LYTE
Assay type: biochemical
How it was run: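 Percent values come from Thermo SelectScreen profiling of NU5455, combining activity and binding assays. CSF1R was run in Z'LYTE format at Km app ATP, and CAMK1 in Adapta format with ATP listed at 10.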

T1 sequence (P07333 20-972): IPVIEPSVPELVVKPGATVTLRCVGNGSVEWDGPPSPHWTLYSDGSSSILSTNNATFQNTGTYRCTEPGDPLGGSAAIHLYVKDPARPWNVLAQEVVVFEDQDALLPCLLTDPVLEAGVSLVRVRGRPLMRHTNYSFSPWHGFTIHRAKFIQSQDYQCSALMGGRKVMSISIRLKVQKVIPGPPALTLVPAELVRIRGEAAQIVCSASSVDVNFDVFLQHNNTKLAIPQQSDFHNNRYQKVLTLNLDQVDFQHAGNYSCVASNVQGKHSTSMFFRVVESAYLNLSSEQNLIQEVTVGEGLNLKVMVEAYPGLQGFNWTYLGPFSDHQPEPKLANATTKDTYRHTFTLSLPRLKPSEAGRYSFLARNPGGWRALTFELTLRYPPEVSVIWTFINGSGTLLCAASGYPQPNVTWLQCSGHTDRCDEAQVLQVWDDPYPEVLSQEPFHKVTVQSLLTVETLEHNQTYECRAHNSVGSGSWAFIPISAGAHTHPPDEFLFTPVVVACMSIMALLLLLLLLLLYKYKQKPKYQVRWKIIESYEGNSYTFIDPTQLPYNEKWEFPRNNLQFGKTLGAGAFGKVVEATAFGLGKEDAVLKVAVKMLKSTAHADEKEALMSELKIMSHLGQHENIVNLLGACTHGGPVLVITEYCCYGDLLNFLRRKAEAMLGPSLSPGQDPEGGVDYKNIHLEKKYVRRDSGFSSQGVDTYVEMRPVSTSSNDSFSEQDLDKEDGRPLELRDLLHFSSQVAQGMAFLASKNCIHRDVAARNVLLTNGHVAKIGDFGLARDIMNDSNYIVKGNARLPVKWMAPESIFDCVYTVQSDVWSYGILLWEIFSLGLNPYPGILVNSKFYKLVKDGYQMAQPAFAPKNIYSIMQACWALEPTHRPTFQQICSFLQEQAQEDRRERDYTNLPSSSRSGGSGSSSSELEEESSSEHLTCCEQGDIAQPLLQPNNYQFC

`CN(C(=O)CN1CCOCC1)c1ccc2sc3c(-c4cccc5c(=O)cc(N6CC7CCC(C6)O7)oc45)cccc3c2c1` [NU5455] was tested, and the inhibition at 1 µM was 4.3%.
